In patent US20240066051A1 (priority 2022, published 2024):

Tests used:
S-protein RBD (WT) = biological target: T1, S-protein RBD (WT) (Severe acute respiratory syndrome coronavirus 2, UniProt P0DTC2); type: binding, SARS-CoV-2
T1 construct: made in house; host or cells: Expi293F cells

[1] = biological target: T2, SARS-CoV-2 S-protein RBD WT (Severe acute respiratory syndrome coronavirus 2, UniProt P0DTC2); type: binding; conditions: immobilized heparin, 1:1 Langmuir global fit, 25° C.
T2 construct: made in house; host or cells: Expi293F cells

[2] = tested on: SARS-CoV-2 pseudotyped viral particles (wild-type); type: binding

Compound | inhibition of the S-protein-heparin interaction (FIG. 5) (S-protein RBD (WT)) | ka [1] | kd [1] | IC50 (S-protein RBD (WT); read-out: IC50 against the S-protein RBD binding to immobilized heparin) | inhibition of pseudotyped viral particle binding to heparin surface compared with heparin control [2]
sulfated lactobionic acid | more modest inhibition activity |  |  |  | 
heparin |  | 1427 1/MS | 2.5 × 10^−4 1/S | 56 nM | 
pentosan polysulfate [PPS] | potently inhibited |  |  |  | stronger inhibition
O=S(=O)(O)c1cc2c(O)c(c1)Cc1cc(S(=O)(=O)O)cc(c1O)Cc1cc(S(=O)(=O)O)cc(c1O)Cc1cc(S(=O)(=O)O)cc(c1O)Cc1cc(S(=O)(=O)O)cc(c1O)Cc1cc(S(=O)(=O)O)cc(c1O)Cc1cc(S(=O)(=O)O)cc(c1O)Cc1cc(S(=O)(=O)O)cc(c1O)C2 [GL-522-Y-1] | more modest inhibition activity |  |  |  | 
mucopolysaccharide polysulfate [MPS] | potently inhibited |  |  |  | stronger inhibition
